The target of assay [1] is DDR1 (Homo sapiens, UniProt Q08345). Description: DDR1 binding assay (LanthaScreen Europium Kinase Binding assay). The arrangement: purchased Carna Biosciences. To be noted: 5 nM DDR1, 20 nM Kinase Tracer 178, 1 hour at room temperature; Ki from IC50 by Cheng-Prusoff. How it is done:
(§1) DDR1 and DDR2 binding assays were performed using Life Technologies LanthaScreen™ Europium Kinase Binding assay. The compounds were incubated with 5 nM DDR1 (Carna Biosciences) or 5 nM DDR2 (Life Technologies) for 1 hour at room temperature in white 384-well OptiPlate (PerkinElmer), containing 20 nM or 10 nM Kinase Tracer 178 respectively and 2 nM Europium labelled anti-GST antibody (Life Technologies) in assay buffer (50 mM HEPES pH 7.5, 10 mM MgCl2, 1 mM EGTA and 0.01% BRIJ35).
(§2) The ratio of fluorescence emission 665 nm/615 nm after excitation at 340 nm was obtained using the Tecan Spark 20M plate reader. IC50 values were determined in GraphPad Prism 7.0 software, using 4 parameter model: log(inhibitor) vs. response. IC50 values were converted in Ki using the Cheng-Prusoff equation (Ki=IC50/(1+[Tracer]/Kd).
Background: In TR-FRET formats the signal depends on donor and acceptor labels being close together.

Assay [2] concerns the target T1, DDR2 (Homo sapiens, UniProt Q16832).
T1 sequence (Q16832 22-855): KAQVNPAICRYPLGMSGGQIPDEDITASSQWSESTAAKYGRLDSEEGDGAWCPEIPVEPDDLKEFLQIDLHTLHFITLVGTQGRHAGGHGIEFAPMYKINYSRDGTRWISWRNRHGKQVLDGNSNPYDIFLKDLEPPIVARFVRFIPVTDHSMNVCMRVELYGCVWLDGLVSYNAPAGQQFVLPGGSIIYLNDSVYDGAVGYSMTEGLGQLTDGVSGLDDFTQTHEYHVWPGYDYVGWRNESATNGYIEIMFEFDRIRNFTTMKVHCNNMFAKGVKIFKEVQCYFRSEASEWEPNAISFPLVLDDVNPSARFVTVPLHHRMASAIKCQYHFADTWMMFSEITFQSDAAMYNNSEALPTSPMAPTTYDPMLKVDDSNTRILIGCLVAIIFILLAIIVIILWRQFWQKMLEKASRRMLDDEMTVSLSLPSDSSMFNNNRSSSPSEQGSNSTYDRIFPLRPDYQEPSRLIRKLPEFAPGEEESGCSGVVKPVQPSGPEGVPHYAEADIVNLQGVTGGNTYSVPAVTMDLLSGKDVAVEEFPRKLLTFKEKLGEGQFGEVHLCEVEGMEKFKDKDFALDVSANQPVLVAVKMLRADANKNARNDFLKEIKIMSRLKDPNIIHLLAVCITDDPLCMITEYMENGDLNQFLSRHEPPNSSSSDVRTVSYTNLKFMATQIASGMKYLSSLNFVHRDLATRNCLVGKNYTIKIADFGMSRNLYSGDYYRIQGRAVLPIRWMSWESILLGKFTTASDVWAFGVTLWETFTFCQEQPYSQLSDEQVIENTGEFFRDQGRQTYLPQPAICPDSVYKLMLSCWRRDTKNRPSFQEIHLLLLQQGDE
As to the kind of experiment: DDR2 binding assay (LanthaScreen Europium Kinase Binding assay). Details: purchased Life Technologies. To be noted: 5 nM DDR2, 10 nM Kinase Tracer 178, 1 hour at room temperature; Ki from IC50 by Cheng-Prusoff. Here is the method:
as §1, §2

By Ki is commonly meant the dissociation constant of the complex between target and ligand, obtained from inhibition or displacement.

DDR1, sequence (Q08345 19-913): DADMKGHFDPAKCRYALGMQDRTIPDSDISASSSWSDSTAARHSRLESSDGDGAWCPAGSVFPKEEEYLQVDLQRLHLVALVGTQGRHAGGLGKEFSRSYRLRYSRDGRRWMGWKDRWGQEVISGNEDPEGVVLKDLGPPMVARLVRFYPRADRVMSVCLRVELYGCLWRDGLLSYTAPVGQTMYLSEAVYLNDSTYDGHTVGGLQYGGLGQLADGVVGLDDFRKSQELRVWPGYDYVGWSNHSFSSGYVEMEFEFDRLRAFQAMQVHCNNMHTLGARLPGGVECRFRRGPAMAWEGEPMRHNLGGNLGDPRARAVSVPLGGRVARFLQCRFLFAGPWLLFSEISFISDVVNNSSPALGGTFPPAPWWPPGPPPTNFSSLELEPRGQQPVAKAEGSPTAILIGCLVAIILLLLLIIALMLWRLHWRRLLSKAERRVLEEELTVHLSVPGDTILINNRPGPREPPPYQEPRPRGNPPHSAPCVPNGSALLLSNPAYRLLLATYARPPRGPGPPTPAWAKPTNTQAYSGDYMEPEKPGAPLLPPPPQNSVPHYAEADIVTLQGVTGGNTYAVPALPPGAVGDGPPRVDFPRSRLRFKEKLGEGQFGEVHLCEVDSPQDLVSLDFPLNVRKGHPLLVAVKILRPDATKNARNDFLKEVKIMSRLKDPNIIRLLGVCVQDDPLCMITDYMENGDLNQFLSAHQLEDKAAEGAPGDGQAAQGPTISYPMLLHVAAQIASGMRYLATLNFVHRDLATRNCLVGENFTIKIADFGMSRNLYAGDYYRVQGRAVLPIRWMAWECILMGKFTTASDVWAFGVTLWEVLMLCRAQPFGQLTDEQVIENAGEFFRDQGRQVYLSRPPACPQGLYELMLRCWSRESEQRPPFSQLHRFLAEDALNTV

Turning to `Cc1cn(-c2cc(NC(=O)c3ccc(C)c(CNc4cnc5ccnn5c4)c3)cc(C(F)(F)F)c2)cn1` [Example 1, 4-methyl-N-(3-(4-methyl-1H-imidazol-1-yl)-5-(trifluoromethyl)phenyl)-3-((pyrazolo[1,5-a]pyrimidin-6-ylamino)methyl)benzamide], the Ki in assay [1] and in assay [2] was below 30 nM throughout.

`CCN(Cc1cc(C(=O)Nc2cc(-n3cnc(C)c3)cc(C(F)(F)F)c2)ccc1C)c1cnc2ccnn2c1` [Example 2, 3-((ethyl(pyrazolo[1,5-a]pyrimidin-6-yl)amino)methyl)-4-methyl-N-(3-(4-methyl-1H-imidazol-1-yl)-5-(trifluoromethyl)phenyl)benzamide]: the Ki is below 30 nM in assay [1] and 300 to 1000 nM in assay [2].

With `Cc1cn(-c2cc(NC(=O)c3ccc(C)c(CNc4ccc5ncsc5c4)c3)cc(C(F)(F)F)c2)cn1` [Example 3, 3-((benzo[d]thiazol-6-ylamino)methyl)-4-methyl-N-(3-(4-methyl-1H-imidazol-1-yl)-5-(trifluoromethyl)phenyl)benzamide], the Ki in assay [1] and in assay [2] was 30 to 300 nM throughout.

As for `Cc1cn(-c2cc(NC(=O)c3ccc(C)c(CNc4ccc5[nH]ncc5c4)c3)cc(C(F)(F)F)c2)cn1` [Example 4, 3-(((1H-indazol-5-yl)amino)methyl)-4-methyl-N-(3-(4-methyl-1H-imidazol-1-yl)-5-(trifluoromethyl)phenyl)benzamide], the inhibition constant Ki in assay [1] and in assay [2] was 30 to 300 nM throughout.

In the case of `Cc1cn(-c2cc(NC(=O)c3ccc(C)c(CNc4cnc5[nH]ccc5c4)c3)cc(C(F)(F)F)c2)cn1` [Example 5, 3-(((1H-pyrrolo[2,3-b]pyridin-5-yl)amino)methyl)-4-methyl-N-(3-(4-methyl-1H-imidazol-1-yl)-5-(trifluoromethyl)phenyl)benzamide], the Ki in assay [1] and in assay [2] was below 30 nM in each case.

Regarding `Cc1cn(-c2cc(NC(=O)c3ccc(C)c(CNC4CNc5ccnn5C4)c3)cc(C(F)(F)F)c2)cn1` (centres unmarked) [Example 6, 4-methyl-N-(3-(4-methyl-1H-imidazol-1-yl)-5-(trifluoromethyl)phenyl)-3-(((4,5,6,7-tetrahydropyrazolo[1,5-a]pyrimidin-6-yl)amino)methyl)benzamide], the Ki in assay [1] and in assay [2] was 300 to 1000 nM each time.

Regarding `Cc1cn(-c2cc(NC(=O)c3ccc(C)c(CNc4ccnc(C#N)c4)c3)cc(C(F)(F)F)c2)cn1` [Example 7, 3-(((2-cyanopyridin-4-yl)amino)methyl)-4-methyl-N-(3-(4-methyl-1H-imidazol-1-yl)-5-(trifluoromethyl)phenyl)benzamide], the inhibition constant Ki in assay [1] and in assay [2] was 30 to 300 nM each time.

Turning to `Cc1cn(-c2cc(NC(=O)c3ccc(C)c(CNc4ccc(C#N)cn4)c3)cc(C(F)(F)F)c2)cn1` [Example 8, 3-(((5-cyanopyridin-2-yl)amino)methyl)-4-methyl-N-(3-(4-methyl-1H-imidazol-1-yl)-5-(trifluoromethyl)phenyl)benzamide], the Ki in assay [1] and in assay [2] was 30 to 300 nM each time.

For `Cc1ccc(NC(=O)c2cc(CN3CCN(C)CC3)cc(C(F)(F)F)c2)cc1CNc1cncnc1` [Example 9, N-(4-methyl-3-((pyrimidin-5-ylamino)methyl)phenyl)-3-((4-methylpiperazin-1-yl)methyl)-5-(trifluoromethyl)benzamide], the inhibition constant Ki in assay [1] and in assay [2] was below 30 nM each time.

As for `CNC(=O)c1cc(NCc2cc(NC(=O)c3cc(CN4CCN(C)CC4)cc(C(F)(F)F)c3)ccc2C)ccn1` [Example 10, N-methyl-4-((2-methyl-5-(3-((4-methylpiperazin-1-yl)methyl)-5-(trifluoromethyl)benzamido)benzyl)amino)picolinamide], the inhibition constant (Ki) is below 30 nM in assay [1] and 30 to 300 nM in assay [2].

Take `Cc1ccc(NC(=O)c2cc(CN3CCN(C)CC3)cc(C(F)(F)F)c2)cc1CNCc1cncnc1` [Example 11, N-(4-methyl-3-(((pyrimidin-5-ylmethyl)amino)methyl)phenyl)-3-((4-methylpiperazin-1-yl)methyl)-5-(trifluoromethyl)benzamide]: the Ki in assay [1] and in assay [2] was 300 to 1000 nM throughout.

In the case of `Cc1ccc(NC(=O)c2cc(CN3CCN(C)CC3)cc(C(F)(F)F)c2)cc1CN(Cc1cnc2ccccn12)Cc1cnc2ccccn12` [Example 12, N-(3-((bis(imidazo[1,2-a]pyridin-3-ylmethyl)amino)methyl)-4-methylphenyl)-3-((4-methylpiperazin-1-yl)methyl)-5-(trifluoromethyl)benzamide], the inhibition constant (Ki) in assay [1] was below 30 nM; in assay [2], 30 to 300 nM.

For `Cc1ccc(NC(=O)c2cc(CN3CCN(C)CC3)cc(C(F)(F)F)c2)cc1CNCc1cnc2ccccn12` [Example 13, N-(3-(((imidazo[1,2-a]pyridin-3-ylmethyl)amino)methyl)-4-methylphenyl)-3-((4-methylpiperazin-1-yl)methyl)-5-(trifluoromethyl)benzamide], the Ki in assay [1] and in assay [2] was below 30 nM each time.

As to `CNC(=O)c1cc(CNCc2cc(NC(=O)c3cc(CN4CCN(C)CC4)cc(C(F)(F)F)c3)ccc2C)ccn1` [Example 14, N-methyl-4-(((2-methyl-5-(3-((4-methylpiperazin-1-yl)methyl)-5-(trifluoromethyl)benzamido)benzyl)amino)methyl)picolinamide], the Ki in assay [1] and in assay [2] was 30 to 300 nM throughout.

As to `Cc1ccc(NC(=O)c2cc(CN3CCN(C)CC3)cc(C(F)(F)F)c2)cc1CNCc1cnc2[nH]ccc2c1` [Example 15, N-(3-((((1H-pyrrolo[2,3-b]pyridin-5-yl)methyl)amino)methyl)-4-methylphenyl)-3-((4-methylpiperazin-1-yl)methyl)-5-(trifluoromethyl)benzamide], the inhibition constant (Ki) in assay [1] and in assay [2] was 30 to 300 nM throughout.

For `CC(C)c1ccc(C(=O)Nc2cc(CN3CCN(C)CC3)cc(C(F)(F)F)c2)cc1CNc1cnc2ccnn2c1` [Example 16, 4-isopropyl-N-(3-((4-methylpiperazin-1-yl)methyl)-5-(trifluoromethyl)phenyl)-3-((pyrazolo[1,5-a]pyrimidin-6-ylamino)methyl)benzamide], the Ki in assay [1] and in assay [2] was 30 to 300 nM each time.

On to `CCCc1ccc(C(=O)Nc2cc(CN3CCN(C)CC3)cc(C(F)(F)F)c2)cc1CNc1cnc2ccnn2c1` [Example 17, N-(3-((4-methylpiperazin-1-yl)methyl)-5-(trifluoromethyl)phenyl)-4-propyl-3-((pyrazolo[1,5-a]pyrimidin-6-ylamino)methyl)benzamide], for which the Ki in assay [1] and in assay [2] was 30 to 300 nM throughout.

In the case of `Cc1ccc(C(=O)Nc2cc(CN3CCN(C)CC3)cc(C(F)(F)F)c2)cc1CNc1cnc2ccnn2c1` [Example 18, 4-methyl-N-(3-((4-methylpiperazin-1-yl)methyl)-5-(trifluoromethyl)phenyl)-3-((pyrazolo[1,5-a]pyrimidin-6-ylamino)methyl)benzamide], the values for the Ki in assay [1] and in assay [2] were below 30 nM and 30 to 300 nM, respectively.

`Cc1ccc(C(=O)Nc2cc(CN3CCN(C)CC3)cc(C(F)(F)F)c2)cc1CNc1cncnc1` [Example 19, 4-methyl-N-(3-((4-methylpiperazin-1-yl)methyl)-5-(trifluoromethyl)phenyl)-3-((pyrimidin-5-ylamino)methyl)benzamide]: the inhibition constant Ki in assay [1] and in assay [2] was below 30 nM throughout.

Values taken from US20230227447A1, “BENZYLAMINE DERIVATIVES AS DDRS INHIBITORS” (CHIESI FARMACEUTICI S.P.A., priority 2020, published 2023).
